Values of other authors as cited in patent US20040033271A1, “Methods for contemporaneous administration of levamisole and 5-fluorouracil” (priority 2003, published 2004).
Read-outs that look alike come from different tables or passages of the source.

Tests used:
bladder cancer = conditions: rats
[1] = system: Human colorectal cancer xenografts; conditions: levamisole alone
breast cancer [2] = conditions: superimposed on CAF; no same-day 5-FU and levamisole
breast cancer [3] = conditions: post-surgical levamisole, large study
Dukes' C. colon cancer = conditions: levamisole alone
colorectal cancer = conditions: added to leucovorin/5-FU regimen after surgical resection
[4] = levamisole in humans
[5] = guinea pigs
[6] = not given; remark: listed apart in the source
[7] = not given; remark: listed apart in the source
A375 melanoma cell line = conditions: most sensitive cell line

c1ccc([C@@H]2CN3CCSC3=N2)cc1 [Dexamisole]
potentiation of BCNU compared with levamisole (bladder cancer): less active

Brc1ccc([C@H]2CN3CCSC3=N2)cc1 [4-bromo analogue of levamisole, 4-bromolevamisole]
phosphatase inhibition (phosphatases): capable of inhibiting phosphatases

Oc1ccc([C@H]2CN3CCSC3=N2)cc1 [4-hydroxy analogue of levamisole, 4-hydroxylevamisole]
phosphatase inhibition (phosphatases): capable of inhibiting phosphatases

c1ccc([C@H]2CN3CCSC3=N2)cc1 [levamisole]
time after administration at which cardiac effects are seen (bolus IV, stated for rats and guinea pigs together): ≤ 60 s | IV dose at which cardiotoxicity was observed (as low as) (rats, IV): 2 mg/kg | effect on xenografts [1]: unaffected | effect of added levamisole (breast cancer [2]): modest effects over untreated historical controls | recurrence (breast cancer [3]): increase in recurrence | clinical benefit (Dukes' C. colon cancer): no benefit | effect of addition of levamisole (colorectal cancer): no additive effect | serum half-life [4]: about four | IV dose at which ECG irregularities were seen [5]: 10 mg/kg | time to peak plasma concentration ([6]; after oral levamisole administration): 2 h | difference between the highest and lowest AUC (area under curve) ([6]; twenty cancer patients, oral levamisole 50 mg t.i.d.): seven | adverse effect of increased oral dose ([7]; five-fold increase in the recommended oral levamisole dose): severe nausea and vomiting | maximum tolerable dose ([7]; oral t.i.d. for five days with daily 5-FU, repeated every five weeks): 100 mg/m^2 | levamisole concentration affecting colony formation (A375 melanoma cell line; in presence of 5-FU): 30 µg/mL | levamisole concentration affecting colony formation (A375 melanoma cell line; molar value in brackets): 0.125 µM
